Tests used:
[1] = target: T1, FLT3-D835Y (Homo sapiens, UniProt P36888, D835Y); experiment: FLT3-D835Y biochemical kinase assay (AlphaScreen)
T1 construct: purchased Invitrogen PV3967
T1 sequence (P36888 27-993 D835Y): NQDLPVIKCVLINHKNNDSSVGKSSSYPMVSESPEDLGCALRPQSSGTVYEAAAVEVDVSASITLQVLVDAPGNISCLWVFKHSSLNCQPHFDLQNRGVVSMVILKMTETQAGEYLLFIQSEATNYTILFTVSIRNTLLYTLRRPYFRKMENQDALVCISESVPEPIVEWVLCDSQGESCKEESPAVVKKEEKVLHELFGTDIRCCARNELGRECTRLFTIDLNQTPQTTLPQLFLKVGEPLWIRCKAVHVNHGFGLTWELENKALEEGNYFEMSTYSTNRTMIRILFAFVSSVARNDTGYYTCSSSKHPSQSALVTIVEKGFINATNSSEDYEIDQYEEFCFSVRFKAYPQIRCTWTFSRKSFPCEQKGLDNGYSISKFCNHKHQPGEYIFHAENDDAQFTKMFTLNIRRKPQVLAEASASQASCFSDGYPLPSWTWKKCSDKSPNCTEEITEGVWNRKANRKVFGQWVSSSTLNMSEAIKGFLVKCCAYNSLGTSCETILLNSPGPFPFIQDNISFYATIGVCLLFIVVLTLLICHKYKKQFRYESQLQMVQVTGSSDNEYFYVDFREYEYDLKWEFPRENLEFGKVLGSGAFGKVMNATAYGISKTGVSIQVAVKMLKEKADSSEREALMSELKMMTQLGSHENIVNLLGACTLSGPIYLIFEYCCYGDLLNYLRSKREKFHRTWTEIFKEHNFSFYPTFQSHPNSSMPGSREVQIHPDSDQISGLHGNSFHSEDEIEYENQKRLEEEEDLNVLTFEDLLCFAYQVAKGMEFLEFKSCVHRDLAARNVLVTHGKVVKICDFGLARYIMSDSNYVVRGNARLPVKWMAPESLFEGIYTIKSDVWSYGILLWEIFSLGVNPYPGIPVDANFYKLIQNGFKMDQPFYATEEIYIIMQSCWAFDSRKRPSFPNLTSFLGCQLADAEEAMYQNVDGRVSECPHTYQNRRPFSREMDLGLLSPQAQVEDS
Procedure, shortened: (§1)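 IC50 values reflect loss of AlphaScreen proximity signal (excitation 680 nm, emission 580 nm) from tyrosine phosphorylation of a biotinylated poly(Glu4-Tyr) substrate at 30 nM. ATP was 10 μM for the D835Y mutant and 100 μM for ITD. Detection used PY20 acceptor beads.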

[2] = target: c-Kit (Homo sapiens, UniProt P10721); experiment: c-Kit biochemical assay (per US 2007/0032519)
Procedure, shortened: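 Biochemical kinase inhibition run per US 2007/0032519; values reported as binned IC50 ranges (0.0001–1 μM, 1–10 μM, 10–200 μM).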

[3] = target: T2, FLT3-ITD (Homo sapiens, UniProt P36888); experiment: FLT3-ITD biochemical kinase assay (AlphaScreen)
T2 construct: FLT3-ITD; Invitrogen #PV6190
T2 sequence (P36888 1-993): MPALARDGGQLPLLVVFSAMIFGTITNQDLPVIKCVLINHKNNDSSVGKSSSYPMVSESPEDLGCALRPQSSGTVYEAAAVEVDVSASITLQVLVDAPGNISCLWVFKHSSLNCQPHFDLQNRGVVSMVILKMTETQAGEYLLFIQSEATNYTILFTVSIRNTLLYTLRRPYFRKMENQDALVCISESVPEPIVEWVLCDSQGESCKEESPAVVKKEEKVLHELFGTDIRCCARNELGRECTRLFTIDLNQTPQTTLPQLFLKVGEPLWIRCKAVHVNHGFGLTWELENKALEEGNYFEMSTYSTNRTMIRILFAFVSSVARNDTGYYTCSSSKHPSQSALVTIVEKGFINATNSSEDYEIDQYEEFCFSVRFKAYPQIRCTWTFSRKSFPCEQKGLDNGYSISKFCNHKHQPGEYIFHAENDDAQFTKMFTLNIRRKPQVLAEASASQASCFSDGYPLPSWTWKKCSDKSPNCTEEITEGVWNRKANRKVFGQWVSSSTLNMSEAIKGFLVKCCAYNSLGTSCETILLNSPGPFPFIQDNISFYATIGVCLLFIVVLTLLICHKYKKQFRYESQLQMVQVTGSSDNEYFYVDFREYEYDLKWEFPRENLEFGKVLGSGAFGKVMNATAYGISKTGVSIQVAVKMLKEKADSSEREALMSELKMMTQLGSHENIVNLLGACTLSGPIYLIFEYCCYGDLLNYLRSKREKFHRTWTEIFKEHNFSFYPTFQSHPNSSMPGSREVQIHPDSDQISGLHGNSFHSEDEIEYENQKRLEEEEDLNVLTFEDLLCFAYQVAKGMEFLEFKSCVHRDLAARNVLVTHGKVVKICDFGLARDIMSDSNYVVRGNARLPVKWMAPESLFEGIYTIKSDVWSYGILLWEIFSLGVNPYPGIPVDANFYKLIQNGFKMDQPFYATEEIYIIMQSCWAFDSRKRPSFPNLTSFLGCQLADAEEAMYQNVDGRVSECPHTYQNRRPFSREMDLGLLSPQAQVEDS
Procedure, shortened: as §1

Chain of c-Kit (P10721 26-976): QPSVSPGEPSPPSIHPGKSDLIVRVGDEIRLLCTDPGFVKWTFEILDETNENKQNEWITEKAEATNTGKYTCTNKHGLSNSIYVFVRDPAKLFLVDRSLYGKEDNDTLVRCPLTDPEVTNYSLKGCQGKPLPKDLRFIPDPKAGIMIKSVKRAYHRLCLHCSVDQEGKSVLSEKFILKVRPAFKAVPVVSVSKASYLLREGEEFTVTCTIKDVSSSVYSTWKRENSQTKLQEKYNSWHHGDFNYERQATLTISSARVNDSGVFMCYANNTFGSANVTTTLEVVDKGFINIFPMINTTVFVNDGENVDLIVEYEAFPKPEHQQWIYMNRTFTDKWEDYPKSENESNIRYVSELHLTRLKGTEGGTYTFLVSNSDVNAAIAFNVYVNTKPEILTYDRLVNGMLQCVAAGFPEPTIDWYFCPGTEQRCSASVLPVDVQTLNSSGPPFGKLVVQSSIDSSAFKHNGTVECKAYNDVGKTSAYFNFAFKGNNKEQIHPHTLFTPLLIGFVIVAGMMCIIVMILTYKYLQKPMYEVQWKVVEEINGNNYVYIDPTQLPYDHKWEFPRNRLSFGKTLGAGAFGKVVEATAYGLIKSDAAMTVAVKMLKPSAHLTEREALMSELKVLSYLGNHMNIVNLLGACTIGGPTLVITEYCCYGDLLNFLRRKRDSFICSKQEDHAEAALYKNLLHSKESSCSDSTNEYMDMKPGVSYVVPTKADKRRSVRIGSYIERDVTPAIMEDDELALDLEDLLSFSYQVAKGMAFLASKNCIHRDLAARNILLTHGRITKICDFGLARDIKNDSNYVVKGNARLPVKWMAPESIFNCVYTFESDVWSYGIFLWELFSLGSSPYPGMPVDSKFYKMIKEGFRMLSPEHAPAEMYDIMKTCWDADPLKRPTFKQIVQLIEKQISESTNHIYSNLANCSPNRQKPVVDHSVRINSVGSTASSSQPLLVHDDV

IC50 [1] [µM] | IC50 [2] [µM] | IC50 [3] [µM] | SMILES
0.0001 to 1 | 1 to 10 | 0.0001 to 1 | CS(=O)(=O)Nc1cccc(-c2cnc3[nH]cc(-c4ccc5ncsc5c4)c3c2)c1 [P-053, N-[3-[3-(1,3-benzothiazol-6-yl)-1H-pyrrolo[2,3-b]pyridin-5-yl]phenyl]methanesulfonamide]
0.0001 to 1 | 1 to 10 | 0.0001 to 1 | Clc1cnc2[nH]cc(-c3ccc4nc[nH]c4c3)c2c1 [P-035, 3-(3H-benzimidazol-5-yl)-5-chloro-1H-pyrrolo[2,3-b]pyridine]
0.0001 to 1 | 10 to 200 | 0.0001 to 1 | CNS(=O)(=O)c1cccc(-c2cnc3[nH]cc(-c4ccc5ncn(C)c5c4)c3c2)c1 [P-046, N-methyl-3-[3-(3-methylbenzimidazol-5-yl)-1H-pyrrolo[2,3-b]pyridin-5-yl]benzenesulfonamide]
0.0001 to 1 | 10 to 200 | 0.0001 to 1 | COc1cnc2[nH]cc(-c3ccc4scnc4c3)c2c1 [P-051, 5-(5-methoxy-1H-pyrrolo[2,3-b]pyridin-3-yl)-1,3-benzothiazole]
0.0001 to 1 | 1 to 10 | 0.0001 to 1 | CCCS(=O)(=O)Nc1cccc(-c2cnc3[nH]cc(-c4ccc5ncn(C)c5c4)c3c2)c1 [P-121, N-[3-[3-(3-methylbenzimidazol-5-yl)-1H-pyrrolo[2,3-b]pyridin-5-yl]phenyl]propane-1-sulfonamide]
0.0001 to 1 | 10 to 200 | 0.0001 to 1 | COc1cnc2[nH]cc(-c3ccc4ncn(C5CC5)c4c3)c2c1 [P-060, 1-cyclopropyl-6-(5-methoxy-1H-pyrrolo[2,3-b]pyridin-3-yl)benzimidazole]
0.0001 to 1 | 1 to 10 | 0.0001 to 1 | COc1cnc2[nH]cc(-c3ccc4ncnc(OC)c4c3)c2c1 [P-043, 4-methoxy-6-(5-methoxy-1H-pyrrolo[2,3-b]pyridin-3-yl)quinazoline]
0.0001 to 1 | 0.0001 to 1 | 0.0001 to 1 | Cn1cnc2ccc(-c3c[nH]c4ncc(-c5ccc(S(=O)(=O)N6CCCC6)cc5)cc34)cc21 [P-091, 1-methyl-6-[5-(4-pyrrolidin-1-ylsulfonylphenyl)-1H-pyrrolo[2,3-b]pyridin-3-yl]benzimidazole]
0.0001 to 1 | 1 to 10 | 0.0001 to 1 | Cn1cnc2ccc(-c3c[nH]c4ncccc34)cc21 [P-009, 1-methyl-6-(1H-pyrrolo[2,3-b]pyridin-3-yl)benzimidazole]
0.0001 to 1 | 0.0001 to 1 | 0.0001 to 1 | CS(=O)(=O)Nc1cccc(-c2cnc3[nH]cc(-c4ccc5ncn(C6CCCC6)c5c4)c3c2)c1 [P-066, N-[3-[3-(3-cyclopentylbenzimidazol-5-yl)-1H-pyrrolo[2,3-b]pyridin-5-yl]phenyl]methanesulfonamide]
0.0001 to 1 | 10 to 200 | 0.0001 to 1 | Cn1cnc2ccc(-c3c[nH]c4ncc(F)cc34)cc21 [P-028, 5-fluoro-3-(3-methylbenzimidazol-5-yl)-1H-pyrrolo[2,3-b]pyridine]
0.0001 to 1 | 1 to 10 | 0.0001 to 1 | COc1ccc(-c2cnc3[nH]cc(-c4ccc5[nH]cnc5c4)c3c2)cn1 [P-024, 3-(1H-benzimidazol-5-yl)-5-(6-methoxy-3-pyridyl)-1H-pyrrolo[2,3-b]pyridine]
0.0001 to 1 | 10 to 200 | 0.0001 to 1 | Cn1cnc2ccc(-c3c[nH]c4ncc(-c5cccc(C#N)c5)cc34)cc21 [P-089, 3-[3-(3-methylbenzimidazol-5-yl)-1H-pyrrolo[2,3-b]pyridin-5-yl]benzonitrile]
0.0001 to 1 | 0.0001 to 1 | 0.0001 to 1 | CC(C)(C)n1cnc2ccc(-c3c[nH]c4ncc(-c5ccnc(F)c5)nc34)cc21 [P-384, 7-(3-tert-butylbenzimidazol-5-yl)-2-(2-fluoro-4-pyridyl)-5H-pyrrolo[2,3-b]pyrazine]
0.0001 to 1 | 1 to 10 | 0.0001 to 1 | O=C(C1CC1)N1CC=C(c2cnc3[nH]cc(-c4ccc5[nH]cnc5c4)c3c2)CC1 [P-017, [4-[3-(1H-benzimidazol-5-yl)-1H-pyrrolo[2,3-b]pyridin-5-yl]-3,6-dihydro-2H-pyridin-1-yl]-cyclopropyl-methanone]
1 to 10 | 1 to 10 | 0.0001 to 1 | c1nc2cc(-c3c[nH]c4ncc(OCC5CC5)cc34)ccc2[nH]1 [P-007, 3-(1H-benzimidazol-5-yl)-5-(cyclopropylmethoxy)-1H-pyrrolo[2,3-b]pyridine]
0.0001 to 1 | 10 to 200 | 0.0001 to 1 | Cn1cnc2ccc(-c3c[nH]c4ncc(-c5cccc(C(F)(F)F)c5)cc34)cc21 [P-132, 1-methyl-6-[5-[3-(trifluoromethyl)phenyl]-1H-pyrrolo[2,3-b]pyridin-3-yl]benzimidazole]
0.0001 to 1 | 10 to 200 | 0.0001 to 1 | Cn1cnc2ccc(-c3c[nH]c4ncc(-c5cccc(S(N)(=O)=O)c5)cc34)cc21 [P-044, 3-[3-(3-methylbenzimidazol-5-yl)-1H-pyrrolo[2,3-b]pyridin-5-yl]benzenesulfonamide]
0.0001 to 1 | 1 to 10 | 0.0001 to 1 | O=C(C1CC1)N1CC=C(c2cnc3[nH]cc(-c4ccc5ncn(CC(F)(F)F)c5c4)c3c2)C1 [P-133, cyclopropyl-[3-[3-[3-(2,2,2-trifluoroethyl)benzimidazol-5-yl]-1H-pyrrolo[2,3-b]pyridin-5-yl]-2,5-dihydropyrrol-1-yl]methanone]
0.0001 to 1 | 0.0001 to 1 | 0.0001 to 1 | CN(C)c1ccc(-c2cnc3[nH]cc(-c4ccc5ncn(C(C)(C)C)c5c4)c3n2)cn1 [P-379, 5-[7-(3-tert-butylbenzimidazol-5-yl)-5H-pyrrolo[2,3-b]pyrazin-2-yl]-N,N-dimethyl-pyridin-2-amine]
0.0001 to 1 | 0.0001 to 1 | 0.0001 to 1 | COc1ncc(-c2cnc3[nH]cc(-c4ccc5ncn(C(C)(C)C)c5c4)c3n2)cc1F [P-385, 7-(3-tert-butylbenzimidazol-5-yl)-2-(5-fluoro-6-methoxy-3-pyridyl)-5H-pyrrolo[2,3-b]pyrazine]
0.0001 to 1 | 1 to 10 | 0.0001 to 1 | CS(=O)(=O)Nc1cccc(-c2cnc3[nH]cc(-c4ccc5[nH]cnc5c4)c3c2)c1 [P-013, N-[3-[3-(1H-benzimidazol-5-yl)-1H-pyrrolo[2,3-b]pyridin-5-yl]phenyl]methanesulfonamide]
0.0001 to 1 | 1 to 10 | 0.0001 to 1 | Cn1cc(-c2ccc(-c3cnc4[nH]cc(-c5ccc6ncn(C(C)(C)C)c6c5)c4n3)cc2)cn1 [P-306, 7-(3-tert-butylbenzimidazol-5-yl)-2-[4-(1-methylpyrazol-4-yl)phenyl]-5H-pyrrolo[2,3-b]pyrazine]

From patent US10160755B2 (Plexxikon Inc., priority 2015, dated 2018)
